Where “and” joins values, the source holds several entries; their conditions need not be identical. Identical values can stand only once.
Experiments:
[1] = biological target: T1, albumin (human serum) (Homo sapiens, UniProt P02768); assay: SEC-ICP-MS albumin binding in human serum; type: in vitro ADME; details: for Pt195 in HMWF (albumin-bound) / Pt195 in LMWF: 100 µM, 37 °C; for Bound to albumin: from 1 to 24 h
T1 construct: Human serum was purchased from Sigma-Aldrich; tissue Sigma-Aldrich; host or cells: human serum
T1 sequence (P02768 25-609): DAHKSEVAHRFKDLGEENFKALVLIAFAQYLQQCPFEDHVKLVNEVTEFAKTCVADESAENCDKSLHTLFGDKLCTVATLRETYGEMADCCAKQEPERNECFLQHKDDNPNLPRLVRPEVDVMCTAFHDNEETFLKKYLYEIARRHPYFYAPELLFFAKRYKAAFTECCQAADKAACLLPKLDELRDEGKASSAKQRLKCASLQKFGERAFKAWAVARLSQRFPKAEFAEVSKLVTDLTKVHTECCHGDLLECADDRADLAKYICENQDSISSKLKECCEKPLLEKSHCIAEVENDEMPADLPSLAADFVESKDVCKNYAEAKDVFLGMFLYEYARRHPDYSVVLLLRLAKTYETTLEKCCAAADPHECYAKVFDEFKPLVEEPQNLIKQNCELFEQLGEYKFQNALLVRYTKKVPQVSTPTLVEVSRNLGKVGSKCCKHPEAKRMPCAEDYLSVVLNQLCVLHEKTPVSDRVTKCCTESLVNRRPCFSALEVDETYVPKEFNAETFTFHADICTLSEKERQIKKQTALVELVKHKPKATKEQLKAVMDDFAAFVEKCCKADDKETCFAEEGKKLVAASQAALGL
Method: Blood of Bab/c mice was collected under anesthesia via heart puncture. […] Human serum was purchased from Sigma-Aldrich. In order to guarantee a stable pH, all sera were buffered with 150 mM phosphate to pH 7.4 by dissolving the necessary amounts of Na2HPO4 and NaH2PO4 directly in the serum. […] The samples were then incubated in the autosampler at 37 °C and analyzed every hour for 4 or 5 h and after 24 h. Between each sample a pure water blank was measured. For measurements with 10 min intervals the same procedure was followed, but the blank measurements were omitted. For SEC-ICP-MS measurements an Agilent 1260 Infinity system coupled to an Agilent 7800 ICP-HRMS equipped with a dynamic reaction cell was used. Oxygen (purity 5.5, Messer Austria GmbH, Gumpoldskirchen, Austria) was used as reaction gas.

[2] = tested on: CT26 colon cancer cells; details: i.v.
Method: CT26 cells (5 × 10^5 in serum-free medium) were injected s.c. into the right flank of male Balb/c mice. […] 0.9% NaCl served as solvent control. Animals were controlled for distress development every day and tumor size was assessed regularly by caliper measurement. Tumor volume was calculated using the formula: (length × width^2)/2. In the overall survival experiments, mice were sacrificed by cervical dislocation in the case of a tumor length >20 mm, tumor ulceration or body weight loss >20%.

[3] = equimolar to 9 mg/kg oxaliplatin, days 4, 8, 12

Row | Compound | Pt195 in HMWF (albumin-bound) ([1]; pH 7.4, 0 h) | Pt195 in LMWF ([1]; pH 7.4, 0 h) [%] | Pt195 in HMWF (albumin-bound) ([1]; pH 7.4, 1 h) | Pt195 in LMWF ([1]; pH 7.4, 1 h) [%] | Pt195 in HMWF (albumin-bound) ([1]; pH 7.4, 2 h) [%] | Pt195 in LMWF ([1]; pH 7.4, 2 h) [%] | Pt195 in HMWF (albumin-bound) ([1]; pH 7.4, 3 h) [%] | Pt195 in LMWF ([1]; pH 7.4, 3 h) [%] | Pt195 in HMWF (albumin-bound) ([1]; pH 7.4, 4 h) [%] | Pt195 in LMWF ([1]; pH 7.4, 4 h) [%] | Pt195 in HMWF (albumin-bound) ([1]; pH 7.4, 5 h) [%] | Pt195 in LMWF ([1]; pH 7.4, 5 h) [%] | Pt195 in HMWF (albumin-bound) ([1]; pH 7.4, 24 h) [%] | Pt195 in LMWF ([1]; pH 7.4, 24 h) [%] | Bound to albumin [1] [%] | Impact on tumor growth [2, 3] | Increase of overall survival compared to solvent control [2, 3] [%] | Prolonged overall survival compared to solvent-treated animals [2, 3] | Maximum albumin binding ([1]; reached after several hours) [%] | Tolerability (body weight) ([2]; three administrations over 2 weeks (days 4, 8, 12))
1 | CC(=O)[O][Pt-2]12([O]C(=O)NCCOCCOCCOCCOCCN3C(=O)C=CC3=O)([NH2+][C@@H]3CCCC[C@H]3[NH2+]1)[O]C(=O)C(=O)[O]2 [Mal-Ox-OAc, (OC-6–34)-Acetato[(1R,2R)-1,2-cyclohexane-1,2-diamino][ (14-(2,5-dioxo-2,5-dihydro-1H-pyrrol-1-yl)-3,6,9,12-tetraoxatetradecyl)-carbamato]-oxalato platinum(IV)] | 29% | 71 | 94% and ~90% | 6 | 94 | 6 | 94 | 6 | 94 | 6 | 94 | 6 | 93 | 7 | ~90 | distinctly reduced tumor growth | ~50 | about 10 days | – | –
2 | CC(=O)[O][Pt-2]12([O]C(=O)NCCOCCOCCOCCOC(=O)C3=CCCCC3S(=O)(=O)Nc3ccc(F)cc3F)([NH2+]C3CCCCC3[NH2+]1)[O]C(=O)C(=O)[O]2 (mixture of isomers) [DFSA-Ox-OAc, (OC-6–34)-Acetato[(1R,2R)-1,2-cyclohexane-1,2-diamino][(1-(6-(N-(2,4-difluorophenyl)-sulfamoyl)-cyclohex-1-en-1-yl)-1-oxo-2,5,8,11-tetraoxatridecan-13-yl)-carbamato]-oxalato platinum(IV)] | 0% | 100 | 34% | 66 | 50 | 50 | 59 | 41 | 63 | 37 | 66 | 34 | 59 | 41 | – | – | – | – | 66 | –
3 | CC(=O)[O][Pt-2]12([O]C(=O)NCCOCCOCCOCCOc3ccc(-c4nnc(S(C)(=O)=O)o4)cc3)([NH2+][C@@H]3CCCC[C@H]3[NH2+]1)[O]C(=O)C(=O)[O]2 [PODS-Ox-OAc, (OC-6–34)-Acetato[(1R,2R)-1,2-cyclohexane-1,2-diamino][(2-(2-(2-(2-(4-(5-(methylsulfonyl)-1,3,4-oxadiazol-2-yl)-phenoxy)-ethoxy)-ethoxy)-ethoxy)-ethyl)-carbamato]-oxalato platinum(IV)] | 2% and < 5% | 98 | 87% and ~90% | 13 | 91 | 9 | 92 | 8 | 92 | 8 | 92 | 8 | 92 | 8 | ~90 | slight remission or stable disease | ~80 | – | – | well-tolerated
